From patent US20240035973A1, “METHODS AND COMPOSITIONS OF STABLE THALLIUM FLUX ASSAYS FOR DETECTING MODULATORS OF ION CHANNELS” (ION Biosciences, priority 2022, published 2024)
pEC50: −log10 of the molar value. Where two headings read alike, the source gives them in different places.

Assays:
GIRK [1] = target: T1, GIRK (Homo sapiens, UniProt P48051+P48549); design: expressed in transfected cells; host or cells: CHO-K1 cells overexpressing GIRK channels; conditions: potassium indicator; plate reader or microscopy; read-out: EC50, literature reported value (calculated EC50s in line with it); cited from earlier work
T1 sequence (P48549 1-501): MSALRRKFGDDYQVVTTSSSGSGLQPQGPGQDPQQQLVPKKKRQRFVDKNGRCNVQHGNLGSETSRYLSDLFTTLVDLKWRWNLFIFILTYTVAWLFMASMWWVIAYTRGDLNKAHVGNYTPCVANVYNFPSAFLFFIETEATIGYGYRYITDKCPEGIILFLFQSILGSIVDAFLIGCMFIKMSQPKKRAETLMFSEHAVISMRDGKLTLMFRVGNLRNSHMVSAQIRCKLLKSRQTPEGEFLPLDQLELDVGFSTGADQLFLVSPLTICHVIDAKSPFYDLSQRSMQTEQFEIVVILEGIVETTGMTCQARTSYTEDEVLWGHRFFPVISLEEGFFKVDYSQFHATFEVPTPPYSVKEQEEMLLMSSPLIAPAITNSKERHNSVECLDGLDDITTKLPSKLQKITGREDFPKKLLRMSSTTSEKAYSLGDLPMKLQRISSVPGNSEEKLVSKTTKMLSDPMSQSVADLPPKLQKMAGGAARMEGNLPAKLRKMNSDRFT
T1 sequence (P48051 1-423): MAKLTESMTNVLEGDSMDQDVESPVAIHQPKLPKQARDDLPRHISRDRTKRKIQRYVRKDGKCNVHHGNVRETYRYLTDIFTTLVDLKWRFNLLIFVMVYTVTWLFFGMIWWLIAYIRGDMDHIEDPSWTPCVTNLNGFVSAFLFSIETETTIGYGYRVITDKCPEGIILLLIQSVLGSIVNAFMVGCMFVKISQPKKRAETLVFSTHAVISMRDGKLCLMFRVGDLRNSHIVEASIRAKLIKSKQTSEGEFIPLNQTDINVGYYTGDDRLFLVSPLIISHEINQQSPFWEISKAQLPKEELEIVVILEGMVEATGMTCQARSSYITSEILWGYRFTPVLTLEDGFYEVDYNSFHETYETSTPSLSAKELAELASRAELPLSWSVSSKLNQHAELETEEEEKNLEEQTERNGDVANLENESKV

GIRK1/2 = target: T2, GIRK1/2 (Homo sapiens, UniProt P48051+P48549); experiment: thallium efflux assay by flow cytometry in CHO GIRK1/2 cells; assay type: cell-based
T2 construct: expressed in transfected cells; host or cells: CHO (Chinese hamster ovary) cells overexpressing GIRK1 and GIRK2
T2 sequence (P48549 1-501): T1 sequence (P48549 1-501)
T2 sequence (P48051 1-423): T1 sequence (P48051 1-423)
Procedure: CHO GIRK cells were treated with HEPES-Buffered Hanks Balanced Salt Solution (HHBSS, Control) or GIRK activator, VU0466551 (VU551). Data was acquired 50 minutes after addition of 1 μM VU551 using a BD Accuri C6 Flow Cytometer. […] FIG. 18 depicts an overlay of histograms of CHO GIRK1/2 cell fluorescence in treated and control cells.
FIG. 19 depicts the kinetic profile of CHO GIRK1/2 median cell fluorescence. Sample data was acquired before and at different time points after the addition of 3 μM GIRK activator, VU0466551 (VU551) or HHBSS (control). A slow increase in fluorescence is observed in the untreated group.

GIRK [2] = target: T1, GIRK; experiment: traditional thallium flux assay (influx), dose response; assay type: cell-based; conditions: traditional thallium flux method, CHO GIRK cells
Procedure: FIG. 5: (Left) Overlay of normalized dose response curves acquired using new method. Data was acquired using different analytical methods or instruments, and all three result in similar profiles and reported EC50 values.
In a comparative test of the efflux method disclosed herein, EC50 values were determined using VU551 as the effector. Three different instruments were used to monitor the change in fluorescence: 1- kinetic imaging plate reader (Hamamatsu FDSS), 2 - fluorescent microscope; 3- fluorescent plate reader. FIG. 5 depicts an overlay of normalized dose response curves acquired using the efflux method described herein. Regardless of the method of data collection, all three instruments provided similar profiles and reported similar EC50 values. In the right graph of FIG. 5, a dose response curve acquired using traditional thallium flux assay methods is shown. […] The use of a plate reader to determine the EC50 in the efflux method produced the closest result to the traditional method.

**Q.** Which results are given for `Cc1cc(NC(=O)Nc2ccc(F)c(F)c2)n(Cc2ccccc2)n1` [VU551]?
**A.** pEC50 (GIRK [1]): ~7.12; Mean cell fluorescence of the treated group (GIRK1/2; 1 μM, 50 minutes after addition, BD Accuri C6 Flow Cytometer, control 4.5M RFUs): 2.5 M; change in median cell fluorescence (kinetic profile) (GIRK1/2; 3 μM, before and at different time points after addition): rapid loss in fluorescence; pEC50 (GIRK [2]): 7.11
